Measured values taken from patent US20250213571A1, “TYK2 INHIBITORS AND USES THEREOF” (Alumis Inc., priority 2022, published 2025).
Like-named read-outs stand apart in the source and are kept apart here.

Tests used:
JAK2 JH2 = JAK2 JH2 (Homo sapiens (Human), UniProt O60674); assay: JAK2 JH2 binding (Kd, Table 2); conditions: JH2 domain
TYK2 JH1 = TYK2 JH1 (Homo sapiens (Human), UniProt P29597); assay: TYK2 JH1 binding (Kd, Table 2); conditions: JH1 domain
JAK3 JH1 = JAK3 JH1 (Homo sapiens (Human), UniProt P52333); assay: JAK3 JH1 binding (Kd, Table 2); conditions: JH1 domain
[1] = target: human TYK2 (JH2domain-pseudokinase) (Homo sapiens (Human), UniProt P29597); assay: TYK2 JH2 domain binding assay (KINOMEscan)
Description: Binding constants for the compounds described herein against the JH2 domain were determined by the following protocol for a KINOMEscan® assay (DiscoveRx). A fusion protein of a partial length construct of human TYK2 (JH2domain-pseudokinase) (amino acids G556 to D888 based on reference sequence NP_003322.3) and the DNA binding domain of NFkB was expressed in transiently transfected HEK293 cells. From these HEK 293 cells, extracts were prepared in M-PER extraction buffer (Pierce) in the presence of Protease Inhibitor Cocktail Complete (Roche) and Phosphatase Inhibitor Cocktail Set II (Merck) per manufacturers' instructions. The TYK2 (JH2domain-pseudokinase) fusion protein was labeled with a chimeric double-stranded DNA tag containing the NFkB binding site fused to an amplicon for qPCR readout, which was added directly to the expression extract (the final concentration of DNA-tag in the binding reaction is 0.1 nM).
Streptavidin-coated magnetic beads (Dynal M280) were treated with a biotinylated small molecule ligand for 30 minutes at room temperature to generate affinity resins the binding assays. The liganded beads were blocked with excess biotin and washed with blocking buffer (SeaBlock (Pierce), 1% BSA, 0.05% Tween 20, 1 mM DTT) to remove unbound ligand and to reduce nonspecific binding.
The binding reaction was assembled by combining 16 μl of DNA-tagged kinase extract, 3.8 μl liganded affinity beads, and 0.18 μl test compound (PBS/0.05% Tween 20/10 mM DTT/0.1% BSA/2 μg/ml sonicated salmon sperm DNA)]. Extracts were used directly in binding assays without any enzyme purification steps at a ≥10,000-fold overall stock dilution (final DNA-tagged enzyme concentration <0.1 nM). Extracts were loaded with DNA-tag and diluted into the binding reaction in a two-step process. First extracts were diluted 1:100 in 1×binding buffer (PBS/0.05% Tween 20/10 mM DTT/0.1% BSA/2 […] sonicated salmon sperm DNA) containing 10 nM DNA-tag. This dilution was allowed to equilibrate at room temperature for 15 minutes and then subsequently diluted 1:100 in 1× binding buffer. Test compounds were prepared as 111× stocks in 100% DMSO. Kds were determined using an 11-point 3-fold compound dilution series with three DMSO control points. All compounds for Kd measurements were distributed by acoustic transfer (non-contact dispensing) in 100% DMSO. The compounds were then diluted directly into the assays such that the final concentration of DMSO was 0.9%. All reactions were performed in polypropylene 384-well plates. Each was a final volume of 0.02 mL. Assays were incubated with shaking for 1 hour at room temperature. Then the beads were pelleted and washed with wash buffer (1×PBS, 0.05% Tween 20) to remove displaced kinase and test compound. The washed based were resuspended in elution buffer (1 λPBS, 0.05% Tween […] non-biotinylated affinity ligand) and incubated at room temperature with shaking for 30 minutes. The kinase concentration in the eluates was measured by qPCR. qPCR reactions were assembled by adding 2.5 μL of kinase eluate to 7.5 μL of qPCR master mix containing […] amplicon primers and 0.15 μM amplicon probe. The qPCR protocol consisted of a 10 minute hot start at 95° C., followed by 35 cycles of 95° C. for 15 seconds, 60° C. for 1 minute.
Test compounds were prepared as 111× stocks in 100% DMSO. Kds were determined using an 11-point 3-fold compound dilution series with three DMSO control points. All compounds for Kd measurements were distributed by acoustic transfer (non-contact dispensing) in 100% DMSO. The compounds were then diluted directly into the assays such that the final concentration of DMSO was 0.9%. The Kds were determined using a compound top concentration of 30,000 nM. Kd measurements were performed in duplicate.
Binding constants (Kds) were calculated with a standard dose-response curve using the Hill equation: […]
The Hill Slope was set to −1. […]

JAK2 JH1 = JAK2 JH1 (Homo sapiens (Human), UniProt O60674); assay: JAK2 JH1 binding (Kd, Table 2); conditions: JH1 domain
JAK1 JH2 = JAK1 JH2 (Homo sapiens (Human), UniProt P23458); assay: JAK1 JH2 binding (Kd, Table 2); conditions: JH2 domain
JAK1 JH1 = JAK1 JH1 (Homo sapiens (Human), UniProt P23458); assay: JAK1 JH1 binding (Kd, Table 2); conditions: JH1 domain
[2] = cn_pd bond, 14-membered ring
[3] = cn_pd bond, 14-membered ring; remark: listed apart in the source
IFNa, PBMCs, p-STAT3 = assay: IFNa induced p-STAT3 in PBMCs; format: cell-based; conditions: Homo sapiens, PBMC, IFNa stimulated PBMCs
[4] = tested on: INFα Induced pSTAT5 in Human PBMC; assay: INFα induced pSTAT5 in human PBMC; format: cell-based; conditions: 0.25 h, human PBMCs, INFα 5000 units/ml 15 minutes, p-STAT5, read-out: IFNa, PBMCs, p-STAT5 (IC50)
Description: Fresh Human PBMCs were resuspended in RPMI 1640 medium with 10% FBS. Cells were seeded in a round bottom 96-well plate at the concentration of 200,000 cells/well. A 10-point dilution series of test compound (top dose 10 uM, 1:5 dilution) was added to the well using the liquid dispenser (Tecan D300e) and incubated for 1 hour at 37 C. Then human INFα recombinant protein (R&D Systems) was added to the well at the final concentration of 5000 units/ml and incubated for 15 minutes at 37 C. Cell lysates were prepared and analyzed by Phospho STAT5 (Tyr693) Kit (Meso Scale Discovery) following manufacturer's protocol.
For calculation of the inhibition rate, the relative pSTAT5 signal of each well=pSTAT5 signal of each well−the average pSTAT5 signal of baseline.
The inhibition %=(the average pSTAT5 signal of INFα treatment wells−the relative of pSTAT5 signal in each compound containing well)/the average pSTAT5 signal of INFα treatment wells*100%
The curve was plotted as the inhibition % (y-axis) vs. compounds concentration (x-axis) and is fitted with log(inhibitor) vs. normalized response—Variable slope by GraphPad Prism7.0.

Chain of JAK1 JH2 (P23458 583-855): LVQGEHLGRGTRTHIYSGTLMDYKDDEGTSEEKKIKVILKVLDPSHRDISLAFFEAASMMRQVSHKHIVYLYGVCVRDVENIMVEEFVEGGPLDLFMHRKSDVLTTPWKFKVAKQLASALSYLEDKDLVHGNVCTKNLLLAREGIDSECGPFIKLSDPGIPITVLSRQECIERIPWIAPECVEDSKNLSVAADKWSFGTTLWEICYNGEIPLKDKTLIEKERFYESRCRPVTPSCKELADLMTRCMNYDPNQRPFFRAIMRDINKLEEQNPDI
Chain of JAK3 JH1 (P52333 822-1111): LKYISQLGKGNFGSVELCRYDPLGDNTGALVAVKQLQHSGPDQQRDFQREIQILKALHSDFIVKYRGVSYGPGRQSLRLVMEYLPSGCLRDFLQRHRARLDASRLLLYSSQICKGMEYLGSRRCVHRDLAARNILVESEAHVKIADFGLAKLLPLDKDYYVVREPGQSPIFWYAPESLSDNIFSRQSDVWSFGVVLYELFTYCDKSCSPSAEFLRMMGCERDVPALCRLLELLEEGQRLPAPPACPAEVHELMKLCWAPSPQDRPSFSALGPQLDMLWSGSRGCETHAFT
Chain of TYK2 JH1 (P29597 897-1176): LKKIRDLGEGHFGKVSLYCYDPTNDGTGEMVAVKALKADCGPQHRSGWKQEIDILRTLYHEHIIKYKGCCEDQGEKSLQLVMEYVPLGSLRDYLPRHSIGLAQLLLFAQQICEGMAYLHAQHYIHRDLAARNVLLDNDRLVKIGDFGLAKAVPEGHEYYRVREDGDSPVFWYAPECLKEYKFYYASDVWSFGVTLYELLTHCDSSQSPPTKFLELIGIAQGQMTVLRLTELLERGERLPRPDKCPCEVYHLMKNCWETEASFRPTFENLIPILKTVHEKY
Chain of JAK2 JH1 (O60674 849-1124): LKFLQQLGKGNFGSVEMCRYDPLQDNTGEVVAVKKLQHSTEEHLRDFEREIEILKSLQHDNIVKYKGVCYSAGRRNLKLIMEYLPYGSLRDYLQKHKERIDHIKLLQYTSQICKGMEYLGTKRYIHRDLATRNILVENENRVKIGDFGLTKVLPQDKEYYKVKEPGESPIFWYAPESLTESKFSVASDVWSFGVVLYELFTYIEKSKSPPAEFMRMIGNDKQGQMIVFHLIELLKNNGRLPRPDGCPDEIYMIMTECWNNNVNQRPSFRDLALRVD
Chain of JAK1 JH1 (P23458 875-1153): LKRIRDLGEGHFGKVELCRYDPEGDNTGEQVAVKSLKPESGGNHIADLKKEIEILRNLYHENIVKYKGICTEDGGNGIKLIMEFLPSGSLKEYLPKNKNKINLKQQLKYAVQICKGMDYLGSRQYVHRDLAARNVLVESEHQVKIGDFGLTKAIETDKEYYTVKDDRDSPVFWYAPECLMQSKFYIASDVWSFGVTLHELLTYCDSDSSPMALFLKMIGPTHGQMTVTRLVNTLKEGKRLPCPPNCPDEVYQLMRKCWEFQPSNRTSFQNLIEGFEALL
Chain of JAK2 JH2 (O60674 545-809): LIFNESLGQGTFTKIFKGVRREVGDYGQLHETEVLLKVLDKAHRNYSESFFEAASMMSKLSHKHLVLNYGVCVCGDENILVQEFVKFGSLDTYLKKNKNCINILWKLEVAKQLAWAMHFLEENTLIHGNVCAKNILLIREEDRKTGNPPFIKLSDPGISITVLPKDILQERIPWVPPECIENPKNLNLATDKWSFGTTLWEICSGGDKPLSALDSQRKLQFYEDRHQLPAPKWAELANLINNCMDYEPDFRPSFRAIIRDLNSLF
Chain of human TYK2 (JH2domain-pseudokinase) (P29597 556-888): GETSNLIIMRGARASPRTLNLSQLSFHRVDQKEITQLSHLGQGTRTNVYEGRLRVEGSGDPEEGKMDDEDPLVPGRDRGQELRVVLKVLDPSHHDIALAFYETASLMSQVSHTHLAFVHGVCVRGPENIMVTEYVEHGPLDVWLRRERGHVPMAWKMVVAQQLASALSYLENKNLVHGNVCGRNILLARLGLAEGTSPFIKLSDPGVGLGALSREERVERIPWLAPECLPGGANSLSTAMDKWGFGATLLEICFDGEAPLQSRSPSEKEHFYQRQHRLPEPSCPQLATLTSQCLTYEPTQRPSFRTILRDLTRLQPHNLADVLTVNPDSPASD

Kd (JAK2 JH2) | Kd (TYK2 JH1) | Kd (JAK3 JH1) | Kd [1] | Kd (JAK2 JH1) | Kd (JAK1 JH2) | Kd (JAK1 JH1) | Molecule | also measured
1 to 10 µM | 1 to 10 µM | 10 to 30 µM | < 0.01 µM | ≥ 30 µM | 0.01 to 1 µM | ≥ 30 µM | [2H]C1([2H])OC[C@@H](C)NC(=O)c2cnc3c(NC)cc(nn23)Nc2cc1cc1c2nnn1C [Compound 7, (7R,E)-3′,7-Dimethyl-1^8-(methylamino)-3^1H-5-oxa-2,8-diaza-1(6,3),3(4,6)-diimidazo[1,2-b]pyridazinacyclononaphan-9-one-4,4-d2] | 
 | ≥ 30 µM |  | < 0.01 µM |  | 1 to 10 µM |  | CNc1cc2nn3c(cnc13)C(=O)O[C@H](C)COCc1cc(c3nnn(C)c3c1)N2 [Compound 3, (7R,E)-3′,7-Dimethyl-1^8-(methylamino)-3^1H-5,8-dioxa-2-aza-1(6,3),3(4,6)-diimidazo[1,2-b]pyridazinacyclononaphan-9-one] | ring closure, isolated yield ([2]; from CNc1cc(Cl)nn2c(C(=O)O[C@H](C)COCc3cc(N)c4nnn(C)c4c3)cnc12, Pd2(dba)3/BINAP/Cs2CO3, dioxane, 27.5 mM, 16.0 h): 33%
 | ≥ 30 µM |  | 1 to 10 µM |  | ≥ 30 µM |  | Cc1nc2cnc3cn2c1C(=O)N[C@H](C)COCc1cc(c2nnn(C)c2c1)N3 [Compound 81] | ring closure, yield after HPLC ([3]; from Cc1nc2cnc(Br)cn2c1C(=O)N[C@H](C)COCc1cc(N)c2nnn(C)c2c1, RuPhos Pd G3/Cs2CO3, dioxane, 80.0 °C): 20%
10 to 30 µM | ≥ 30 µM | ≥ 30 µM | < 0.01 µM | ≥ 30 µM | 1 to 10 µM | ≥ 30 µM | CNc1cc2nn3c(cnc13)C(=O)N[C@H](C)COCc1cc(c3nnn(C)c3c1)N2 [Compound 5] | IC50 (IFNa, PBMCs, p-STAT3): < 0.05 µM; IC50 [4]: < 0.05 µM
 |  |  | 0.01 to 1 µM |  |  |  | Cc1nc2c(N)nc3cn2c1C(=O)N[C@H](C)COCc1cc(c2nnn(C)c2c1)N3 [Compound 74] | ring closure, yield after HPLC ([3]; from Cc1nc2c(N)nc(Br)cn2c1C(=O)N[C@H](C)COCc1cc(N)c2nnn(C)c2c1, Pd2(dba)3/Xantphos/Cs2CO3, dioxane, 100.0 °C, 16.0 h): 6.2%
 |  |  | 0.01 to 1 µM |  |  |  | COc1nc2cn3c(c(C)nc13)C(=O)N[C@H](C)COCc1cc(c3nnn(C)c3c1)N2 [Compound 72] | ring closure, yield after HPLC ([3]; from COc1nc(Br)cn2c(C(=O)N[C@H](C)COCc3cc(N)c4nnn(C)c4c3)c(C)nc12, RuPhos Pd G3/Cs2CO3, 1,4-dioxane, 72.0 mM, 80.0 °C, 4.0 h): 21%
 | ≥ 30 µM |  | 1 to 10 µM |  | ≥ 30 µM |  | COc1nc2cn3c(cnc13)C(=O)N[C@H](C)COCc1cc(c3nnn(C)c3c1)N2 [Compound 79] | ring closure, yield after HPLC ([3]; from COc1nc(Br)cn2c(C(=O)N[C@H](C)COCc3cc(N)c4nnn(C)c4c3)cnc12, Pd2(dba)3/Xantphos/Cs2CO3, 1,4-dioxane, 61.0 mM, 80.0 °C): 14%
10 to 30 µM | ≥ 30 µM | ≥ 30 µM | < 0.01 µM | ≥ 30 µM | 0.01 to 1 µM | ≥ 30 µM | CNc1cc2nc3c(cnn13)C(=O)N[C@H](C)COCc1cc(c3nn(C)nc3c1)N2 [Compound 34] | 
≥ 30 µM | ≥ 30 µM | ≥ 30 µM | < 0.01 µM | ≥ 30 µM | 10 to 30 µM | ≥ 30 µM | CNc1cc2nc3c(cnn13)C(=O)N[C@H](C)COCc1cc(c3c(c1)nnn3C)N2 [Compound 37] | 
 | ≥ 30 µM |  | < 0.01 µM |  | 0.01 to 1 µM |  | CNc1cc2nn3c(cnc13)C(=O)N[C@H](CO)COCc1cc(c3nnn(C)c3c1)N2 [Compound 2] | IC50 (IFNa, PBMCs, p-STAT3): ≥ 0.1 µM; IC50 [4]: < 0.05 µM
≥ 30 µM | ≥ 30 µM | ≥ 30 µM | < 0.01 µM | ≥ 30 µM | 1 to 10 µM | ≥ 30 µM | CNc1cc2nc3c(cnn13)C(=O)N[C@H](C)COCc1cc(c3nnn(C)c3c1)N2 [Compound 33] | 
1 to 10 µM | 1 to 10 µM | 10 to 30 µM |  | ≥ 30 µM | 0.01 to 1 µM | ≥ 30 µM | CNc1cc2nn3c(cnc13)C(=O)N[C@H](C)COCc1cc(c3c(c1)ncn3C)N2 [Compound 8, (7R,E)-3′,7-Dimethyl-1^8-(methylamino)-3^1H-5-oxa-2,8-diaza-1(6,3)-imidazo[1,2-b] pyridazina-3(7,5)-benzo[d]imidazolacyclononaphan-9-one] | 
 |  |  | 1 to 10 µM |  |  |  | CNc1nc2cn3c(c(C)nc13)C(=O)N[C@H](C)COCc1cc(c3nnn(C)c3c1)N2 [Compound 78] | ring closure, yield after HPLC ([3]; from CNc1nc(Br)cn2c(C(=O)N[C@H](C)COCc3cc(N)c4nnn(C)c4c3)c(C)nc12, RuPhos Pd G3/Cs2CO3, 1,4-dioxane, 64.0 mM, 80.0 °C): 11.3%
 |  |  |  |  |  |  | tert-butyl N-methyl-N-[(12R)-12-methyl-10-oxo-14-oxa-2,4,5,7,11,16-hexaazapentacyclo[13.6.2.2^(3,6.0^(5,9.0^(19,23]pentacosa-1(21),3,6,8,15,17,19,22,24-nonaen-24-yl]carbamate | ring closure, yield after HPLC ([3]; Pd2(dba)3/Xantphos/Cs2CO3, 1,4-dioxane, 50.0 mM, 80.0 °C): 60%
 |  |  | 0.01 to 1 µM |  |  |  | C[C@@H]1COCc2cc(c3nnn(C)c3c2)Nc2cn3c(cnc3c(N)n2)C(=O)N1 [Compound 73] | ring closure, yield after HPLC ([3]; from C[C@H](COCc1cc(N)c2nnn(C)c2c1)NC(=O)c1cnc2c(N)nc(Br)cn12, RuPhos Pd G3 (0.5 eq)/Cs2CO3, dioxane, 64.0 mM, 100.0 °C, 16.0 h): 4.4%
 |  |  |  |  |  |  | tert-butyl N-methyl-N-[(12R)-12-methyl-10-oxo-14-oxa-2,4,5,7,11,18-hexaazapentacyclo[13.6.2.2^(3,6.0^(5,9.0^(19,23]pentacosa-1(22),3,6,8,15,17,19(23),20,24-nonaen-24-yl]carbamate | ring closure, isolated yield ([2]; Pd2(dba)3/Cs2CO3, 1,4-dioxane, 42.3 mM, 80.0 °C): 67%
